The source of these data is patent publication US7772258B2, “Agent for treatment of allergic eye disease” (Nikken Chemicals Co., Ltd., priority 2001, dated 2010).

SMILES strings stand for the structures.

The test system of one experiment is Allergic Conjunctivitis Model. Put plainly: Alleviating action for allergic conjunctivitis model (Itch-Scratch response after OA challenge). The following applies: OA-sensitized Wistar rats; positive control 0.3 w/v % suspension in physiological saline dropped into the eyes 10 minutes before OA challenge; scratching counted over 20 minutes after OA. The experiment is classed as in vivo. How it is done: or the experiment, Wistar rats (CLEA Japan) were used. The rats were sensitized by intraperitoneal administration of ovalbumin (OA, made by Sigma) in an amount of 100 μg and 10 mg of aluminum hydroxide (Alum, made by Pierce Co.) suspended in 1 mL of physiological saline. Allergic conjunctivitis was induced using rats after 3 weeks from the date of sensitization by dropping into the eyes of 10 μg OA solution prepared by physiological saline to a concentration of 30 mg/mL. The medicine was suspended at a concentration of 1.0 w/v % in physiological saline and dropped into the eyes 10 minutes before OA challenge to induce conjunctivitis (as a positive control drug, diphenhydramine suspended in a concentration of 0.3 w/v % in physiological saline was dropped in the eyes 10 minutes before OA challenge to induce conjunctivitis). For the effect of the compound, the number of times of the action of using the hind legs to scratch the eye area (Itch-Scratch response; considered to be an indicator of itchiness) observed in the 20-minute period after dropping the OA was counted and used to find the rate of inhibition of itchiness by the following formula: Control group: presensitized rats in whose eyes physiological saline is dropped 10 minutes before using OA to induce conjunctivitis Untreated group: unsensitized rats in whose eyes physiological saline is dropped. Calculation Formula: Inhibition rate(%)=100−(test substance group−untreated group/(control group−untreated group)×100
As to `CN(C)CCOC(c1ccccc1)c1ccccc1` [Diphenhydramine, diphenhydramine, reference compound], the “Inhibition rate (%) of Itch-Scratch response” value (from here on “Inhibition rate (%)”) was found to be 64.6%.

Staying with this experiment, now noted: OA-sensitized Wistar rats; test substance 1.0 w/v % suspension in physiological saline dropped into the eyes 10 minutes before OA challenge; scratching counted over 20 minutes after OA.
Turning to `COc1ccc(NC2=C(C)C(=O)CC2)cc1O[C@@H]1C[C@H]2CC[C@@H]1C2` (racemic) [Compound 2, 3-[3-[(1RS,2RS,4SR)-bicyclo[2.2.1]hept-2-yloxy]-4-methoxyanilino]-2-methyl-2-cyclopenten-1-one], the “Inhibition rate (%)” value is reported as 62.9%.

As to `COc1ccc(N(Cc2ccc3ccccc3c2)C2=CC(=O)CC2)cc1OC1CCCC1` [Compound 1, 3-[3-cyclopentyloxy-4-methoxy-N-(2-naphthylmethyl)anilino]-2-cyclopenten-1-one], the “Inhibition rate (%)” value was determined as 82.7%.

With `COc1ccc(NC2=C(C)C(=O)CC2)cc1O[C@@H]1C[C@H]2CC[C@@H]1C2` [Compound 4, (−)-3-[3-[(1R,2R,4S)-bicyclo[2.2.1]hept-2-yloxy]-4-methoxyanilino]-2-methyl-2-cyclopenten-1-one], the “Inhibition rate (%)” value was 68.6%. Same read-out and setting: for `COc1ccc(NC2=C(C)C(=O)CC2)cc1O[C@H]1C[C@@H]2CC[C@H]1C2` [Compound 5, (+)-3-[3-[(1S,2S,4R)-bicyclo[2.2.1]hept-2-yloxy]-4-methoxyanilino]-2-methyl-2-cyclopenten-1-one] the value was 97.1%; for `CCC1=C(Nc2ccc(OC)c(O[C@@H]3C[C@H]4CC[C@@H]3C4)c2)CCC1=O` (racemic) [Compound 3, 3-[3-[(1RS,2RS,4SR)-bicyclo[2.2.1]hept-2-yloxy]-4-methoxyanilino]-2-ethyl-2-cyclopenten-1-one], 63.5%.
